Data set [1] deals with TNFα production, J774A-1 cells. Description: LPS-induced TNFα production in J774A-1 cells (ELISA). Type of data set: cell-based. The note with it: Mus musculus, J774.A1, 24 h, read-out: IC50 (μM), inhibition of TNFα released by LPS induction. In short, it runs like this:
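J774-1 macrophages were cultured with or without LPS and compound at 37° C for 24 h. TNFα in supernatants measured by ELISA; IC50 is the concentration inhibiting 50% of TNFα production.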
Background: In an ELISA, binding on a coated surface is turned into a signal by an enzyme label.

The nature of data set [2]: PBML cytotoxicity (MTT). The format is cell-based. The note with it: human. The source says:
(§1) PBML were obtained from the peripheral blood of healthy volunteers. Blood was submitted to gradient centrifugation with Lympholyte-poly (Cedarlane, Hornby, Canada). The layer, which contains the mononuclear leukocytes, was collected and the cells washed three times in PBS. Cells were then suspended in RPMI (Gibco, Burlington, Canada) supplemented with […] (cyclone, Logan USA). Viability was greater than 99% as determined by trypan blue exclusion.
(§2) PBML were resuspended at 2×10^6 cells mL. 100 μL of PBML (2×10^5 cells) were incubated in a 96-well microtiter plate for 48 h in the presence or absence of compound or protein A. Cells were quiescent or stimulated with concanavalin A (ConA; T-cells) or pokeweed mitogen (PWM; B-cells). After incubation, cells were treated with MTT (cytotoxicity) or pulsed with 1 μCi of [^3]-thymidine (DNA synthesis), [^3H]-uridine (RNA synthesis) or [^3]-leucine (protein synthesis) for 6 h. Plates were harvested on a Tomteck and counted on a Microbeta β-counter.

The target of data set [3] is T1, Fc portion of human IgG (binding of protein A to human IgG).
T1 construct: fused on or other part: Horseradish peroxidase chemically conjugated to the IgG (HRP-IgG)
Description: Competitive protein A binding ELISA. In short, it runs like this:
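Protein A coated overnight at 4 °C and blocked with 2% BSA. Compound, diluted in PBS or PBS-20% DMSO, competed with HRP-conjugated human IgG for 1 h at 37 °C. Bound IgG detected with ABTS at 405 nm; IC50 is the concentration inhibiting 50% of protein A binding.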

Data set [4] has as its target TNFα / p75 TNFα receptor (CD120b) (Homo sapiens, UniProt P01375). Description: Binding ELISA: TNF-α binding to plastic coated TNF-R2. To be noted: for inhibition at 100 µM: 10^−4 M; for inhibition at 10 µM: 10^−5 M. The procedure:
Compounds were tested for their ability to bind to TNFα or inhibit the interaction of TNFα with its respective receptors; p55 and p75 TNFα receptor. Three binding ELISA assays were undertaken as described by Mancini et al. Biochemical Pharmacology 58, 851-859 (1999). TNFα or receptor (1 μg/mL) was coated on a 96-well plate Maxisorp, overnight at 4° C. After incubation, unbound TNFα or p55 TNFα receptor or p75 TNFα receptor was removed and the plate washed three times with PBS. The plate was then incubated with 100 μL/well of a 2% BSA solution for 1 h at 37° C. to block non specific protein binding. After incubation, the plate was washed three times with PBS. Biotinylated recombinant human TNFα p55 or p75 receptor or biotinylated recombinant human TNFα was added to the wells in the presence or absence of compounds. The plate was incubated for 1 h at 37° C. After incubation, the plate was washed three times with PBS to remove unbound labeled p55 or p75 receptor or recombinant human TNFα. 100 μL of avidin-HRP (diluted 1/2000 in PBS-0.1% BSA) was added to each well and incubated 1 h at 37° C. Bound p55 or p75 receptor or recombinant human TNFα was detected by the addition of 200 μL of 3,3′,5,5′-tetramethylbenzidine (TMB) per well for 15 min. The plate was then read at 655 nm on a EL 800 universal Microplate reader (Bio-Tek, Mississauga, Canada). Data was analyzed in Microsoft Excel and recorded as the percentage of inhibition of p55 or p75 binding to TNFα or TNFα binding to RI (p55) or RII (p75).

Data set [5] deals with peripheral blood mononuclear leukocytes (PBML). Description: PBML DNA synthesis (thymidine). Type of data set: cell-based, human. The note with it: for IC50: Homo sapiens, Leukocyte; for effect on DNA synthesis (in words): resting and stimulated (ConA and PWM) PBML.
Excerpt: as §1, §2

Data set [6] shares this test system. Description: PBML protein synthesis (leucine). The note with it: for IC50: Homo sapiens, Leukocyte; for effect on protein synthesis (in words): resting and stimulated PBML. The format is cell-based, human.
Excerpt: as §1, §2

The test system is the same in data set [7]. Description: PBML RNA synthesis (uridine). Type of data set: cell-based, human. The note with it: for IC50: Homo sapiens, Leukocyte; for effect on RNA synthesis (in words): resting and stimulated (ConA and PWM) PBML.
Excerpt: as §1, §2

Where [8] appears, read: Table 1, PBS-20% DMSO, read-out: IC50 (μM): Assay in PBS-20% DMSO.

For orientation: IC50 means the concentration at which inhibition is half-maximal. As a reminder, the inhibition is the relative decrease from the control value, in per cent. The low end stands for a response near the control, the high end for a response far below the control.

Read-outs that look alike come from different tables or passages of the source.

TNFα / p75 TNFα receptor (CD120b), sequence (P01375 77-233 limits assumed): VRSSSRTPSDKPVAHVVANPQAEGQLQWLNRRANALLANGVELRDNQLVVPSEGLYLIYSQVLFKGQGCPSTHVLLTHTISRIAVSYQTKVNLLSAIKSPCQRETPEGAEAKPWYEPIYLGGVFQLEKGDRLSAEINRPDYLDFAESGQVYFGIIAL

On to `Oc1ccc(CCNc2nc(NCCNc3nc(NCCc4ccc(O)cc4)nc(Nc4ccccc4)n3)nc(Nc3ccccc3)n2)cc1` [Compound 1], for which the IC50 in data set [1] was 9.2 µM; in data set [3] (setting [8]), 50 µM; in data set [5] (ConA stimulated PBML), 1420 nM; in data set [5] (PWM stimulated PBML), 770 nM; in data set [5] (Resting PBML), 2490 nM; in data set [6] (ConA stimulated PBML), 2440 nM. Moreover, the concentration for half-maximal inhibition (IC50) in data set [6] (PWM stimulated PBML) was determined as 2960 nM; in data set [6] (Resting PBML), 6480 nM; in data set [7] (ConA stimulated PBML), 920 nM; in data set [7] (PWM stimulated PBML), 660 nM; in data set [7] (Resting PBML) it was 1100 nM. The concentration for half-maximal inhibition (IC50) at 48 h in data set [2] (ConA stimulated PBML) is 8700 nM; in data set [2] (PWM stimulated PBML), greater than 10000 nM; in data set [2] (Resting PBML), greater than 10000 nM. Also, 100 µM produced 63.3% inhibition in data set [4]. Moreover, in data set [4], testing at 10 µM gave an inhibition of 38.4%. For the same compound, the “effect on DNA synthesis (in words)” value in data set [5] is reported as “suppress”. Besides, the “effect on protein synthesis (in words)” value in data set [6] is listed as “inhibit”. Also, the “effect on RNA synthesis (in words)” value in data set [7] is recorded as “suppress”.

Consider `Nc1ccc(CCNc2nc(Nc3ccc(CCNc4nc(NCCO)nc(Nc5cccc(N)c5)n4)cc3)nc(Nc3cccc(N)c3)n2)cc1` [Compound 19a], for which the IC50 in data set [1] was determined as 20.7 µM; in data set [3] (setting [8]) it was 0.003 µM; in data set [3] (Table 1, PBS, read-out: IC50 (μM): Assay in PBS), 0.06 µM; in data set [3] (Table 2, PBS-20% DMSO, n = 5 or 6, read-out: IC50 (n = 5 or 6) PBS-20% DMSO), 0.0035 µM; in data set [3] (Table 2, PBS, n = 5 or 6, read-out: IC50 (n = 5 or 6) PBS), 0.088 µM; in data set [5] (ConA stimulated PBML), 1570 nM. Further, the IC50 is 4380 nM in data set [5] (PWM stimulated PBML); 1900 nM in data set [5] (Resting PBML); 3910 nM in data set [6] (ConA stimulated PBML); 4880 nM in data set [6] (PWM stimulated PBML); 9900 nM in data set [6] (Resting PBML); 693 nM in data set [7] (ConA stimulated PBML). In addition, the IC50 was determined as 398 nM in data set [7] (PWM stimulated PBML) and 399 nM in data set [7] (Resting PBML). The IC50 at 48 h in data set [2] (ConA stimulated PBML) was 6800 nM; in data set [2] (PWM stimulated PBML), greater than 10000 nM; in data set [2] (Resting PBML), no less than 10000 nM. Also, testing at 100 µM in data set [4] gave an inhibition of 27.4%. Also, in data set [4], the inhibition at 10 µM came out at 24.3%. Besides, the “effect on DNA synthesis (in words)” value in data set [5] is “suppress”. The “effect on protein synthesis (in words)” value in data set [6] is listed as “inhibit”. For the same compound, the “effect on RNA synthesis (in words)” value in data set [7] is “suppress”.

These data come from patent US7683061B2, “Triazine dimers for the treatment of autoimmune diseases” (ProMetic BioSciences Inc., priority 2003, dated 2010).
